Data set [1] is described as follows: Animal parameters (food, body weight, liver weight, mortality) in rats. The class given is in vivo, male Sprague-Dawley rats. As to conditions: 4 days; for mortality at 96 h: in vivo, po, read-out: mortality (deaths per group); for mortality at 96 h / body wt., percent of control / lw/bw (liver weight/body weight), percent of control: rat. The method, boiled down:
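Male Sprague-Dawley rats (50–100 g, n=5/group) received compound as a 0.3% or 0.1% dietary admixture for 4 days, alongside an untreated control group. On day 5, non-fasted rats were bled and killed. Body weight, liver weight, food intake (g·day⁻¹·rat⁻¹) and mortality were recorded.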

Data set [2] can be described thus: Food consumption, body and liver weight in cholesterol-fed rabbits. It is filed as in vivo, female New Zealand White rabbits. As to conditions: diet 0.4%, 7 days; for body wt., percent of control / lw/bw (liver weight/body weight), percent of control: rabbit. The method, boiled down: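 Female New Zealand White rabbits fed 100 g/day of 0.2% cholesterol chow sprayed with compound (mostly 0.4%; some at 0.26% or 0.6%) from ethanol or diethyl ether:ethanol 3:2, for 7 days (14 days at 0.6%). Daily food intake, terminal body and liver weights recorded in grams.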

A short description of data set [3]: Clinical chemistries in serum of rats. It is filed as in vivo, male Sprague-Dawley rats. To be noted: for response vs control in vivo at 0.1 % / response vs control in vivo at 0.3 %: po, 96 h. The method, boiled down: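 Male Sprague-Dawley rats (50-100 g, N=5/group) fed compound as 0.3% or 0.1% dietary admixture for 4 days vs untreated-chow controls. Non-fasted rats bled by cardiac puncture on day 5; fresh serum analysed on autoanalyzer for ALP, ALT, AST (units/L) and cholesterol, triglycerides, glucose (mg/dL).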

Data set [4] relates to oxidation of serum lipids. Put plainly: TBARS assay, serum of cholesterol-fed rabbits. To be noted: Oryctolagus cuniculus, po, 168 h, read-out: TBARS, percent of control. The class given is in vivo, female New Zealand White rabbits. The method in brief: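 Female NZW rabbits ate 0.2% cholesterol chow with 0.4% dietary compound (some 0.26% or 0.6%) for 7 days (14 days at 0.6%); fasted serum was collected. Serum was oxidised with 5 mM CuSO4 solution, 37 °C 5 h, then reacted with thiobarbituric acid at 90 °C for 30 min. MDA nmol came from an A540 standard curve, versus untreated-rabbit serum.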

Setting [5] is: rat serum, diet 0.1%, 4 days, read-out: CHOL (total cholesterol), percent of control.
Where [6] appears, read: rat serum, diet 0.1%, 4 days, read-out: TRIG (triglycerides), percent of control.
Where [7] appears, read: rat serum, diet 0.3%, 4 days, read-out: CHOL (total cholesterol), percent of control.
Setting [8] is: rat serum, diet 0.3%, 4 days, read-out: TRIG (triglycerides), percent of control.
Setting [9] is: rabbit serum, diet 0.4%, 7 days.
The mark [10] stands for this setting: Rattus norvegicus, read-out: CHOL (total cholesterol), percent of control.
Setting [11] is: Rattus norvegicus, read-out: TRIG (triglycerides), percent of control.

Read-outs that look alike come from different tables or passages of the source.

As usually defined, the mortality is the share of the test organisms that died.

Take `CN(C)c1ccc([Si](C)(C)COc2cc(C(C)(C)C)c(O)c(C(C)(C)C)c2)cc1` [MDL 104,556, 2,6-Di-t-butyl-4-[(4-N,N-dimethylaminophenyldimethylsilyl)methyloxy]phenol]: in data set [1] (diet 0.1%), the “food (grams eaten per day per rat), percent of control” value is recorded as 102%; the mortality at 96 h came out at 0%; the “body wt., percent of control” value is listed as 103%; the “lw/bw (liver weight/body weight), percent of control” value worked out at 106%. Moreover, in data set [1] (diet 0.3%), the “food (grams eaten per day per rat), percent of control” value is recorded as 68%; the mortality at 96 h came out at 0%; the “body wt., percent of control” value amounted to 87%; the “lw/bw (liver weight/body weight), percent of control” value was found to be 120%. In data set [2], the “food (grams eaten per day per rabbit), percent of control” value is reported as 100%; the “body wt., percent of control” value worked out at 97%; the “lw/bw (liver weight/body weight), percent of control” value came to 96%. The response vs control in vivo at 0.1 % in data set [3] (setting [5]) was 96%. For the same molecule, the response vs control in vivo at 0.1 % in data set [3] (setting [6]) was determined as 74%. In addition, the response vs control in vivo at 0.3 % in data set [3] (setting [7]) is 119%. For the same molecule, the response vs control in vivo at 0.3 % in data set [3] (setting [8]) came out at 95%. Moreover, in data set [3] (rat serum, diet 0.1%, 4 days), the “ALP (alkaline phosphatase), percent of control” value (shortened to “ALP … percent of control”) was 112%; the “ALT (alanine aminotransferase), percent of control” value (“ALT … percent of control” below) is recorded as 125%; the “AST (aspartate aminotransferase), percent of control” value (from here on “AST … percent of control”) was found to be 107%; the “GLUC (glucose), percent of control” value was determined as 102%. Also, in data set [3] (rat serum, diet 0.3%, 4 days), the “ALP … percent of control” value is recorded as 112%; the “ALT … percent of control” value is 106%; the “AST … percent of control” value worked out at 101%; the “GLUC (glucose), percent of control” value was determined as 113%. For the same molecule, the response vs control in vivo at 0.4 % in data set [4] (setting [9]) stood at 70%.
As to `CC(C)(C)c1cc(OC[Si](C)(c2ccccc2)c2ccccc2)cc(C(C)(C)C)c1O` [MDL 104,599, 2,6-Di-t-butyl-4-[(diphenylmethylsilyl)methloxy]phenol], in data set [1] (diet 0.3%), the “food (grams eaten per day per rat), percent of control” value turned out to be 103%; the mortality at 96 h was 0%; the “body wt., percent of control” value is given as 93%; the “lw/bw (liver weight/body weight), percent of control” value is reported as 107%. In data set [2], the “food (grams eaten per day per rabbit), percent of control” value was determined as 98%; the “body wt., percent of control” value stood at 99%; the “lw/bw (liver weight/body weight), percent of control” value came to 86%. The response vs control in vivo at 0.3 % in data set [3] (setting [7]) was found to be 94%. Besides, the response vs control in vivo at 0.3 % in data set [3] (setting [8]) is 100%. Moreover, in data set [3] (rat serum, diet 0.3%, 4 days), the “ALP … percent of control” value was found to be 110%; the “ALT … percent of control” value is reported as 91%; the “AST … percent of control” value was 76%; the “GLUC (glucose), percent of control” value amounted to 111%. Further, the response vs control in vivo at 0.4 % in data set [4] (setting [9]) is 79%.
For the molecule `CC(C)(C)c1cc(OC[Si](C)(C)c2ccccc2)c(C(C)(C)C)cc1O` [MDL 104,962, 2,5-Di-t-butyl-4-[(dimethylphenylsilyl)methyloxy]phenol], in data set [1] (diet 0.3%), the “food (grams eaten per day per rat), percent of control” value is listed as 74%; the mortality at 96 h came out at 0%; the “body wt., percent of control” value turned out to be 95%; the “lw/bw (liver weight/body weight), percent of control” value is reported as 103%. For the same molecule, in data set [2], the “food (grams eaten per day per rabbit), percent of control” value was 69%; the “body wt., percent of control” value is reported as 97%; the “lw/bw (liver weight/body weight), percent of control” value came to 71%. Also, the response vs control in vivo at 0.3 % in data set [3] (setting [7]) came to 99%. Moreover, the response vs control in vivo at 0.3 % in data set [3] (setting [8]) worked out at 74%. Also, in data set [3] (rat serum, diet 0.3%, 4 days), the “ALP … percent of control” value is recorded as 130%; the “ALT … percent of control” value stood at 112%; the “AST … percent of control” value is 109%; the “GLUC (glucose), percent of control” value was 91%. For the same molecule, the response vs control in vivo at 0.4 % in data set [4] (setting [9]) is 19%.
Turning to `CC(=O)Oc1ccc(OC[Si](C)(C)c2ccccc2)cc1C(C)(C)C` [MDL 105,443, 2-t-Butyl-4-[(dimethylphenylsilyl)methyloxy]phenol acetic acid ester], in data set [1] (diet 0.1%), the “food (grams eaten per day per rat), percent of control” value is listed as 100%; the mortality at 96 h was determined as 0%; the “body wt., percent of control” value came to 101%; the “lw/bw (liver weight/body weight), percent of control” value is 110%. In addition, in data set [1] (diet 0.3%), the “food (grams eaten per day per rat), percent of control” value was 84%; the mortality at 96 h was 0%; the “body wt., percent of control” value is reported as 95%; the “lw/bw (liver weight/body weight), percent of control” value amounted to 118%. Also, in data set [2], the “food (grams eaten per day per rabbit), percent of control” value was found to be 100%; the “body wt., percent of control” value stood at 101%; the “lw/bw (liver weight/body weight), percent of control” value stood at 90%. Also, in data set [3] (setting [5]), the response vs control in vivo at 0.1 % was found to be 111%. Also, the response vs control in vivo at 0.1 % in data set [3] (setting [6]) stood at 111%. For the same molecule, the response vs control in vivo at 0.3 % in data set [3] (setting [7]) stood at 131%. In addition, the response vs control in vivo at 0.3 % in data set [3] (setting [8]) was determined as 126%. Moreover, in data set [3] (rat serum, diet 0.1%, 4 days), the “ALP … percent of control” value came out at 101%; the “ALT … percent of control” value was 116%; the “AST … percent of control” value came out at 94%; the “GLUC (glucose), percent of control” value amounted to 106%. Also, in data set [3] (rat serum, diet 0.3%, 4 days), the “ALP … percent of control” value is 90%; the “ALT … percent of control” value is 156%; the “AST … percent of control” value turned out to be 171%; the “GLUC (glucose), percent of control” value is listed as 98%. The response vs control in vivo at 0.4 % in data set [4] (setting [9]) was 42%.
`CC(C)(C)c1cc(OC[Si](C)(C)c2ccc(C(F)(F)F)cc2)cc(C(C)(C)C)c1O` [MDL 105,975, 2,6-Di-t-butyl-4-[(dimethyl-4-trifluoromethylphenylsilyl)methyloxy]phenol]: in data set [1] (diet 0.1%), the “food (grams eaten per day per rat), percent of control” value came to 106%; the mortality at 96 h was determined as 0%; the “body wt., percent of control” value worked out at 98%; the “lw/bw (liver weight/body weight), percent of control” value stood at 105%. Also, in data set [1] (diet 0.3%), the “food (grams eaten per day per rat), percent of control” value came to 98%; the mortality at 96 h amounted to 0%; the “body wt., percent of control” value was determined as 100%; the “lw/bw (liver weight/body weight), percent of control” value was 113%. Besides, in data set [2], the “food (grams eaten per day per rabbit), percent of control” value turned out to be 100%; the “body wt., percent of control” value was 101%; the “lw/bw (liver weight/body weight), percent of control” value is reported as 108%. Moreover, in data set [3] (setting [10]), the response vs control in vivo at 0.1 % is 98% and the response vs control in vivo at 0.3 % is 122%. Besides, in data set [3] (setting [11]), the response vs control in vivo at 0.1 % is 108% and the response vs control in vivo at 0.3 % worked out at 107%. In data set [3] (rat serum, diet 0.1%, 4 days), the “ALP … percent of control” value is listed as 112%; the “ALT … percent of control” value was 96%; the “AST … percent of control” value was determined as 89%; the “GLUC (glucose), percent of control” value turned out to be 110%. In data set [3] (rat serum, diet 0.3%, 4 days), the “ALP … percent of control” value stood at 105%; the “ALT … percent of control” value came to 106%; the “AST … percent of control” value came to 122%; the “GLUC (glucose), percent of control” value worked out at 106%. In data set [4], the response vs control in vivo at 0.4 % stood at 68%.
`COc1ccc([Si](C)(C)COc2ccc(O)c(C(C)(C)C)c2)cc1` [MDL 106,834, 2-t-Butyl-4-[(dimethyl-p-methoxylphenylsilyl)methyloxy]phenol]: in data set [1] (diet 0.3%), the “food (grams eaten per day per rat), percent of control” value was determined as 91%; the mortality at 96 h turned out to be 0%; the “body wt., percent of control” value was 95%; the “lw/bw (liver weight/body weight), percent of control” value came out at 132%. Moreover, in data set [2], the “food (grams eaten per day per rabbit), percent of control” value is on record as 99%; the “body wt., percent of control” value turned out to be 99%; the “lw/bw (liver weight/body weight), percent of control” value turned out to be 94%. Further, the response vs control in vivo at 0.3 % in data set [3] (setting [7]) was 150%. Moreover, in data set [3] (setting [8]), the response vs control in vivo at 0.3 % was found to be 83%. Moreover, in data set [3] (rat serum, diet 0.3%, 4 days), the “ALP … percent of control” value is reported as 69%; the “ALT … percent of control” value is 141%; the “AST … percent of control” value is listed as 122%; the “GLUC (glucose), percent of control” value stood at 95%. The response vs control in vivo at 0.4 % in data set [4] (setting [9]) came to 70%.

These data come from patent US5608095A, “Alkyl-4-silyl-phenols and esters thereof as antiatherosclerotic agents” (Hoechst Marion Roussel, Inc., priority 1996, dated 1997).
